In PMC7460390, “Secondary Metabolites with Nitric Oxide Inhibition from Marine-Derived Fungus Alternaria sp. 5102” (Marine Drugs, 2020):
Where two headings read alike, the source gives them in different places.

What was measured:
[1] = Cell viability, MTT assay, with LPS treatment; assay type: cell-based, murine; details: mouse, RAW 264.7 cells, MTT, LPS 1 µg/mL, 24 h, mean ± SD, n = 3
Experimental: (§1) In this work, all isolated compounds (1–22) were evaluated for their inhibition of nitric oxide (NO) production in RAW264.7 cells activated by lipopolysaccharide (LPS) using the Griess assay with indomethacin as a positive control (Table 3). […] To investigate whether the inhibitory activities of the active compounds were due to their cytotoxicity, the effects of the tested compounds on cell proliferation/viability were evaluated using the MTT method. […] Therefore, further studies are required to clarify the underlying mechanism of the active compounds.
(§2) Cell viability was measured using the conventional MTT assay. RAW 264.7 cells were seeded in 96-well plates at a density of 1.5 × 10^5 cells/mL. After 12 h, the cells were treated with LPS (1 µg/mL) and samples, followed by additional incubation for 24 h at 37 °C. MTT stock solution (2 mg/mL) was added to wells for a total reaction volume of 110 µL. After 4 h incubation, the supernatants were aspirated. The formazan crystals in each well were dissolved in 50 µL of DMSO, and the absorbance was measured using a microplate reader (Multiskan GO, Thermo Scientific, Waltham, MA, USA) at the wavelength of 490 nm. Relative cell viability was evaluated based on the quantity of MTT converted to the insoluble formazan salt. The optical density of formazan generated in the control cells represented 100% viability. The data were expressed as mean percentages of the viable cells compared to the respective control.

[2] = test system: NO production in RAW264.7 cells activated by lipopolysaccharide; test: Inhibition of NO production in LPS-activated RAW264.7 cells (Griess assay); assay type: cell-based, murine; details: for SI, selectivity index, calculated by CC50/IC50: CC50 (MTT) / IC50 (NO production); for IC50: read-out: IC50, inhibition of LPS-induced NO production
Experimental: After pre-incubation of RAW 264.7 cells (1.5 × 10^5 cells/mL) with LPS (1 µg/mL) and samples at 37 °C for 24 h, the quantity of nitrite accumulated in the culture medium was measured as an indicator of NO production. Briefly, 50 µL of cell culture medium were mixed with 100 µL Griess reagent, and incubated at room temperature for 10 min. The absorbance was determined at 540 nm wavelength with a microplate reader (Multiskan GO, Thermo Scientific, Waltham, MA, USA).

RAW 264.7 cells = test: Cell viability, MTT assay, with LPS treatment; assay type: cell-based, murine; details: up to 100 μM, with LPS treatment for 24 h
Experimental: as §1, §2

[3] = test system: RTX-induced mouse ear edema; parameters: method as in PMID 10840958; details: 50 µg per ear, topical; cited from earlier work
[4] = test system: spontaneous synchronous Ca^2+ oscillations; parameters: method as in PMID 32237750; details: cited from earlier work
[5] = test system: indoleamine 2,3-dioxygenase 1 (IDO1); parameters: method as in doi:10.1039/C9QO00775J; details: cited from earlier work
C. albicans = test system: C. albicans; parameters: method as in PMID 22377027; details: against C. albicans; cited from earlier work
[6] = test system: iNOS and COX-2 proteins and mRNA expressions in RAW 264.7 macrophages; parameters: method as in not given; details: ref not given; cited from earlier work
[7] = test system: NO production in lipopolysaccharide activated RAW264.7 cells; parameters: method as in PMID 29197643; details: LPS-activated RAW264.7 cells, in vitro; read-out: IC50, inhibition of NO production; cited from earlier work
[8] = RAW 264.7 cells activated with LPS
[9] = Mus musculus, RAW264.7, 24 h, RAW 264.7 cells, LPS 1 µg/mL, 24 h, Griess assay, mean ± SD, n = 3
[10] = RAW 264.7 cells, LPS 1 µg/mL, 24 h, Griess assay, mean ± SD, n = 3

Molecule	CC50 at 24 h [1, 8] [µM]	SI, selectivity index, calculated by CC50/IC50 ([2]; RAW 264.7 cells)	IC50 [2, 9] [µM]	other results
COc1cc(O)c2c(c1)C1(OC2=O)C(C)=CC(=O)C1O (racemic) [Compound 10, ±talaroflavone]	27.2 ± 1.6	1.1	23.9 ± 3.3	
CC(O)C(C)OC(=O)CC1OC(=O)c2c(O)cccc21 (centres unmarked) [Compound 1, alternabenzofuran A]	> 100		> 50	
C[C@H](O)[C@@H](C)OC(=O)C[C@@H]1OC(=O)c2c(O)cccc21 [Compound 2, alternabenzofuran B]	> 100		18.7 ± 2.35	Cytotoxicity (cell proliferation/viability, MTT) (RAW 264.7 cells): did not show any significant cytotoxicity
CC1=CC(=O)C2(C)CCCC(C)(CO)C23CC13 (centres unmarked) [Compound 3, alternaterpenoid A]	24.9 ± 1.2	10.4		
CC1(C)CCCC2(C)C(=O)C=C(CO)C3CC312 (centres unmarked) [Compound 4, alternaterpenoid B]	> 100		~50	
COC(=O)C[C@@H]1OC(=O)c2c(O)cccc21 [Compound 5, isobenzofuranone A]	> 100		41.1 ± 4.78	
COc1cc(O)c2c(c1)C1=C(O)C(=O)C[C@@]1(C)OC2=O [Compound 7, (R)-1,6-dihydroxy-8-methoxy-3a-methyl-3,3a-dihydrocyclopenta[c]isochromene-2,5-dione]	20.6 ± 2.3	4.0	< 10	IC50 [2, 10]: 5.2 ± 1.96 µM
COc1cc(O)c2c(=O)oc3c(c2c1)[C@@H](C)CC3=O [Compound 8, dihydroaltenuenes A]	> 100		> 50	
COc1cc(O)c2c(=O)oc3c(c2c1)[C@@H](C)C[C@@H]3O [Compound 9, phialophriol]	> 100			Cytotoxicity (cell proliferation/viability, MTT) (RAW 264.7 cells): did not show any significant cytotoxicity
COc1cc(O)c2c(=O)oc3cc(O)cc(C)c3c2c1 [Compound 11, alternariol-9-O-methyl ether]				CC50 at 24 h [1]: > 100 µM; Cytotoxicity (cell proliferation/viability, MTT) (RAW 264.7 cells): did not show any significant cytotoxicity; IC50 ([2]; Mus musculus, RAW264.7, 24 h): 39 ± 1.92 µM
Cc1cc(O)cc2oc(=O)c3c(O)cc(O)cc3c12 [Compound 12, alternariol]		3.0		CC50 at 24 h [1]: 50.4 ± 2.1 µM; IC50 ([2]; Mus musculus, RAW264.7, 24 h): 16.6 ± 1.6 µM
COc1cc(O)c2c(=O)oc3cc(O)c(C)cc3c2c1 [Compound 13, 2-methyl-9-methoxy alternariol]		2.0		CC50 at 24 h [1]: 48.2 ± 2.6 µM; IC50 ([2]; Mus musculus, RAW264.7, 24 h): 24.5 ± 4.51 µM
COc1cc(O)c2c(=O)oc3c(O)c(O)cc(C)c3c2c1 [Compound 14, 3’-hydroxyalternariol 5-O-methyl ether]			< 10	CC50 [1]: > 100 µM; Cytotoxicity (cell proliferation/viability, MTT) (RAW 264.7 cells): did not show any significant cytotoxicity; IC50 [2, 10]: 5.9 ± 0.48 µM
COc1cc(O)c2c(=O)oc3cc(CO)cc(O)c3c2c1 [Compound 15, alternariol-1’-hydroxy-9-methyl ether]		1.9		CC50 at 24 h [1]: 48.7 ± 1.8 µM; IC50 ([2]; Mus musculus, RAW264.7, 24 h): 26.3 ± 3.99 µM
COc1cc(O)c2c(c1)C1=CC(=O)C(O)=CC1(C)OC2=O (centres unmarked) [Compound 16, dehydroaltenusin]			1.3 to 41.1	
COc1cc(O)c2c(c1)-c1cc(O)c(O)cc1COC2=O [Compound 17, alteryulactone]				CC50 at 24 h [1]: > 100 µM; Cytotoxicity (cell proliferation/viability, MTT) (RAW 264.7 cells): did not show any significant cytotoxicity; IC50 ([2]; Mus musculus, RAW264.7, 24 h): 16.2 ± 2.62 µM
COC(=O)C1Cc2cccc(O)c2C(=O)O1 (centres unmarked) [Compound 18, tenuissimasatin]	28.3 ± 2.5	1.2	24.5 ± 1.06	
COc1cc(O)c(C(=O)O)c(-c2cc(O)c(O)cc2C)c1 [Compound 20, altenusin]				CC50 at 24 h [1]: > 100 µM; IC50 ([2]; Mus musculus, RAW264.7, 24 h): 25.4 ± 3.03 µM
Cc1cc(=O)c2c(C)cc(O)cc2o1 [Compound 21, 2,5-dimethyl-7-hydroxychromone]	17.3 ± 2.2	1.2	14.9 ± 1.92	
C[C@H]1CC(=O)OC[C@H]1O [Compound 22, walterolactone C]	46.4 ± 1.7	3.1	14.9 ± 1.92	
CCC(C)[C@]1(O)NC(=O)[C@@H](C)n2c1nc1c(c2=O)C=C(OC)C=CO1 (some centres unmarked) [Oxepinamide A]				Inhibition rate, ear edema [3]: 82%
C=C1CC[C@H]2C(C)(C)[C@@H](O)CC[C@]2(C)[C@H]1CC(=O)[C@]1(O)C=C(CSC[C@H](O)C(=O)OC)C(=O)C1 [alternarin A]				Inhibition of spontaneous synchronous Ca2+ oscillations [4]: effective inhibition
COC1=CC(=O)c2c(O)c3c(c4c2[C@]12CC(=O)C[C@H]2[C@@]1(C[C@H](O)[C@H](O)CO1)O4)C[C@](C)(O)[C@H](O)C3 [anthrininone A]				Inhibition activity against IDO1 [5]: significant inhibition activity
COc1cc([C@H](Cc2ccccc2)NC(C)=O)oc(=O)c1 [pyrophen]				Anti-fungal activity (C. albicans): displayed anti-fungal activity
CC1=C[C@@H](O)[C@H]2C[C@@H](C)C[C@@H](C)[C@@H]2[C@H]1/C=C/C=C/C(=O)O [tanzawaic acid Q]				Effect on LPS-induced iNOS and COX-2 proteins and mRNA expressions [6]: inhibited
Amestolkolides B				IC50 [7]: 1.6 ± 0.1 µM
